Test results as given in a melting point compilation (Tetko et al.).

melting point	SMILES
212 to 216 °C	CC(=O)Nc1cc(F)ccc1C(=O)O
145 to 156 °C	Cc1ccc(OCC(=O)NN)c2c1CCC2
151 °C	O=C(CO)[C@@H](O)[C@@H](O)[C@H](O)[C@H](O)CO
255 to 258 °C	Nc1ccc(CC(N)C(=O)O)cc1 (racemic)
184 °C	CC(=O)Nc1cc(NS(=O)(=O)C(F)(F)F)c(C)cc1C
28 to 30 °C	O=Cc1ccc(F)c(Cl)c1
171 to 173 °C	CC(=O)Nc1ccc(C(=O)C2CCNCC2)cc1
251 °C	Cc1nc(-c2ccc(Cl)cc2)sc1C(=O)O
-1 °C	COC(=O)c1cc(C)ccc1O
< 25 °C	CC(=O)C=CC1C(C)=CCC(C)C1(C)C (stereo not given)
73 to 75 °C	Cc1cccc(C(=O)CC#N)c1
105 to 110 °C	CC(C)(C)OC(=O)N1CC[C@H]1C(=O)O
219 °C	CC(CCC(=O)O)C1CCC2C3C(O)CC4CC5(CCC4(C)C3CC(=O)C12C)OCCO5 (stereo not given)
208 to 210 °C	O=C(c1ccccc1)c1cnc2ccc(Br)cn2c1=O
126 to 127 °C	O=C(O)c1ccc(Oc2ccccc2)o1
75 to 80 °C	Brc1ccc(Cn2ccnc2)cc1
262 to 263 °C	NC(Cc1ccc(Br)cc1)C(=O)O (racemic)

melting point	SMILES
83 °C	O=C(O)C=CCCl
191 °C	CC1(/C(=N\Nc2ccc([N+](=O)[O-])cc2[N+](=O)[O-])C(=O)O)CCC(C(=O)O)C1(C)C (stereo not given)
66 to 68 °C	COc1c(C(=O)Cl)csc1Cl
212 to 215 °C	CCOC(=O)c1cn(-c2ccc(F)cc2F)c2nc(Cl)c(F)cc2c1=O
203 °C	Nc1cc(C(Cl)=C(Cl)Cl)c(S(N)(=O)=O)cc1S(N)(=O)=O
165 to 166 °C	COc1ccc(Br)c(C(=O)NN)c1
159 °C	CC(=O)Oc1cc(OC(C)=O)cc(C(=O)O)c1
318 to 320 °C	O=C(O)c1ccc(-n2cncn2)cc1
55 to 59 °C	CC(=O)c1c(-c2ccc(Cl)cc2Cl)noc1C
154 °C	O=C(Nc1cccc(Cl)c1)C(C(F)(F)F)C(F)(F)F
146 °C	Cc1ccccc1NC(=O)c1ccccc1
142 °C	O=C(O)c1ccccc1S(=O)(=O)O
84 to 86 °C	O=C(O)COc1ccc(OC(F)(F)F)cc1
139 °C	CCOC(=O)C(CCc1ccccc1)NC(C)C(=O)N1C(=O)N(C)CC1C(=O)O (stereo not given)
295 to 297 °C	O=C(O)c1ccc(C(=O)O)c(Br)c1
149 to 151 °C	O=C(O)CCC(=O)c1ccc2c(c1)OCCCO2
29 to 32 °C	C[C@H](C(=O)O)c1ccccc1

Continued, compound first:

SMILES	melting point
N#C/C(=N/Nc1ccc(Br)cc1)c1nc(-c2ccccc2)cs1	169 °C
O=C(O)c1cc([N+](=O)[O-])c(Cl)c([N+](=O)[O-])c1Cl	210 to 215 °C
COC1CC2C3(C)CCCC2(COC3)C2C(OC(C)=O)CC3C(C)C(=O)C12C3O (stereo not given)	165 °C
Nc1ccc(Sc2cc(Cl)ccc2Cl)nc1	108 to 109 °C
FC(F)(F)C(F)(Br)C(F)(F)Br (stereo not given)	-95 °C
Fc1ccc2c(c1)Cc1ccccc1-2	98 °C
CC1OC(Oc2ccc([N+](=O)[O-])cc2)C(O)C(O)C1O (stereo not given)	191 to 192 °C
O=C1NN(c2ccccc2)C(=O)C1=Cc1ccc(Cl)cc1	322 °C
COc1ccc(C2C(=O)c3ccccc3C2=O)cc1	156 °C
Cc1cc(OC(=O)C(F)(F)F)c(C)cc1OC(=O)C(F)(F)F	89 °C
COc1cc2c(cc1OC)C1(O)C(=O)c3ccc4c(c3OC1CO2)C=CC(C)(C)O4 (stereo not given)	198 °C
c1ccc(Sc2ccccc2)cc1	-40 °C
O=Cc1ncccc1F	49 to 52 °C
CC(C=CC=CC(C)=CC=CC(C)=CC=C1C(C)=CC(=O)CC1(C)C)=CC=CC(C)=CC=C1C(C)=CC(=O)CC1(C)C	219 °C
Cn1ccc(-c2ccc(CCl)cc2)n1	78 to 80 °C
Cc1cc(C)c(CC(=O)c2cc3ccccc3o2)c(C)c1	172 to 173 °C
CCOc1ccc(-c2nnc3n2NC(c2ccc(O)c(OC)c2)S3)cc1 (stereo not given)	133 °C
CCCCCCCCCc1ccccc1	-24 °C
CCCCCCNC	-31 °C

SMILES	melting point
CSc1cc(-c2ccc(F)cc2)n[nH]1	101 to 103 °C
N#Cc1cc(F)cc(Br)c1	43 to 46 °C
NC(=S)Nc1cccc([N+](=O)[O-])c1	189 to 190 °C
COc1ccc(C2Nc3nc(C(F)(F)F)nn3C(N)=C2C#N)cc1 (stereo not given)	211 °C
COc1ccc(Br)cc1C	68 °C
FC(F)(F)c1cccc(Cl)n1	33 to 35 °C
CC(=O)OCC1OC(Oc2ccc([N+](=O)[O-])cc2)C(OC(C)=O)C(OC(C)=O)C1OC(C)=O (stereo not given)	177 °C
CC1C(=O)C23C(O)CC4C(C)(C)CC(O)CC4(C)C2CCC1C3O (stereo not given)	377 °C
CC(C)(C)C1CCCC1	-96 °C
Nc1ncnc2c1ncn2C1(CO)OC(CO)C(O)C1O (stereo not given)	212 °C
Cn1cc(C(=O)Nc2ccc(F)cc2-c2ccc(Cl)c(Cl)c2)c(C(F)F)n1	147 °C
Cc1nc(-c2ccc(C=O)s2)cs1	127 to 128 °C
COC(=O)C1(S(=O)(=O)c2ccc(C)cc2)CC1	97.2 °C
N#CCc1cccc(I)c1	34 °C
CC12CCC(=O)C=C1C=CC1C2CCC2(C)C1CCC21CCC(=O)O1 (stereo not given)	150 °C
CC1CC(=O)c2cc(Cl)ccc2S1 (stereo not given)	64 to 65 °C
O=C1CCCC2C3CCCN4CCCC(CN12)C34 (stereo not given)	76 °C
O=C(NC(=O)c1c(F)cccc1F)Nc1ccc(CON=C(c2ccc(Cl)cc2)C2CC2)cc1	144 °C
Nc1ncc(C(F)(F)F)cc1Br	100 °C

SMILES	melting point
O=C1OC(c2ccccc2)=NC1=Cc1ccc(-c2ccc([N+](=O)[O-])cc2)o1	208 °C
CC(=O)Nc1cccc(-n2nnnc2S)c1	185 to 187 °C
Cc1ccc2sc(CO)cc2c1	93 to 94 °C
Nc1cccc2nsnc12	68 °C
N=C1NC(=O)C(=NNc2ccccc2)S1	210 °C
N#Cc1csc2ccc(Cl)cc12	121 to 122 °C
CC1(C)C(C=C(Cl)Cl)C1C(=O)OC(C#N)c1ccc(F)c(Oc2ccccc2)c1 (stereo not given)	93.5 °C
Nc1cc(-c2ccccc2)no1	109 °C
Cc1cc(C)c(C(C)C)cc1C	21 °C
Cc1nc(-c2ccc(C(F)(F)F)cc2)sc1C=O	131 to 133 °C
Clc1cncc(Cl)c1N1CCNCC1	77 to 80 °C
Cc1cc2ccccc2nc1C	68.5 °C
CC1=Cc2ccccc2C1	80 °C
COC(=O)c1ccc(CBr)cc1	56 °C
CC(C)CCCC(C)(C)C	-105 °C
Cc1ccc(-c2csnn2)cc1	73 to 75 °C
Cc1cccc(C(O)c2ccccc2)c1 (stereo not given)	53 °C
COc1ccc(SC)cc1	22 to 23 °C
